Like-named read-outs stand apart in the source and are kept apart here. Where only a bound is given, the exact number is not on record here.

Data set [1] in a line: LogP by HPLC on reversed phase columns (EEC directive 79/831 Annex V.A8). Type of data set: physicochemical. Particulars: reversed phase HPLC columns. The gist of the method: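 LogP derived from retention time, interpolated linearly between bracketing alkan-2-one standards (3 to 16 carbons). Where several values exist for one method, all are listed with "+"; UV spectra 200–400 nm at peak maxima gave lambda-max.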

The subject of data set [2] is salicylate responsive promoter sequence of the PR1 (pathogenesis-related protein I) gene (AT2G14610). Nature of the data set: Induction of defense gene expression in Arabidopsis thaliana (PR1 promoter-GFP reporter plants). The format is in vivo. The note with it: 72 h, 3rd day after spraying, mock treated leaves set as 1.00, read-out: relative fluorescence value. The gist of the method:
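Transgenic A. thaliana carrying GFP under the salicylate-responsive PR1 promoter, grown five days, then sprayed with compounds. Whole-plant fluorescence imaged and quantified on day 3 post-spray, expressed relative to mock-treated leaf background set at 1.00.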

Data set [3] has as its system Colletotrichum lindemuthianum. Nature of the data set: In vivo preventive test on Colletotrichum lindemuthianum (Anthracnose on bean). The note with it: Colletotrichum lindemuthianum, 144 h, sprayed 72 hours before inoculation, evaluated 6 days after inoculation, read-out: efficacy; for pest or weed control at 500 ppm: 500 ppm of active ingredient; for pest or weed control at 31 ppm: 31 ppm of active ingredient; for pest or weed control at 125 ppm: 125 ppm of active ingredient. The procedure:
The tested active ingredients were prepared by homogenization in a mixture of acetone/Dimethyl sulfoxide/Tween®, and then diluted with water to obtain the desired active material concentration.
The young plants of bean were treated by spraying the active ingredient prepared as described above. Control plants were treated only with an aqueous solution of acetone/Dimethyl sulfoxide/Tween®.
After 72 hours, the plants were contaminated by spraying the leaves with an aqueous suspension of Colletotrichum lindemuthianum spores. The contaminated bean plants were incubated for 24 hours at 20° C. and at 100% relative humidity and then for 5 days at 20° C. and at 90% relative humidity.
The test was evaluated 6 days after the inoculation. 0% means an efficacy which corresponds to that of the control plants while an efficacy of 100% means that no disease was observed.

For the next data set, the system named is Peronospora parasitica. The data set is described as follows: In vivo preventive test on Peronospora parasitica (Crucifer downy mildew) on cabbage. Particulars: Hyaloperonospora parasitica, 120 h, sprayed 72 hours before inoculation, evaluated 5 days after inoculation, read-out: efficacy; for pest or weed control at 125 ppm: 125 ppm of active ingredient; for pest or weed control at 500 ppm: 500 ppm of active ingredient; for pest or weed control at 31 ppm: 31 ppm of active ingredient. Put shortly: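 Preventive protocol: spore inoculation followed compound spraying by 72 h, with 5 days' incubation at 20 °C and 100% relative humidity. Disease was rated 5 days after inoculation against solvent-only plants (0% = control level, 100% = disease-free).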

In another data set the test system is Uromyces appendiculatus. The data set is described as follows: In vivo preventive test on Uromyces appendiculatus (bean rust). The note with it: 240 h, sprayed 72 hours before inoculation, evaluated 10 days after inoculation, read-out: efficacy; for pest or weed control at 125 ppm: 125 ppm of active ingredient; for pest or weed control at 500 ppm: 500 ppm of active ingredient. The gist of the method: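 Young bean plants sprayed with compound in acetone/DMSO/Tween diluted in water, then inoculated 72 h later with spore suspension. Incubated 24 h at 20° C., 100% RH, then 9 days at 20° C., 70-80% RH. Efficacy scored 10 days post-inoculation, 0% = untreated-control level, 100% = no disease.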

Another data set has as its system Alternaria alternata. Nature of the data set: Alternaria alternata in vitro cell test. The format is cell-based. The note with it: 120 h, 5 days incubation, read-out: efficacy (inhibition of fungal growth; no direct activity); for inhibition at 5 ppm: 5 ppm of active ingredient; for inhibition at 20 ppm: 20 ppm of active ingredient. The gist of the method:
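A. alternata spores in glucose/peptone/yeast-extract liquid medium were exposed to DMSO-solubilized compound (final DMSO ≤1%). After 5 days incubation, mycelium growth read spectrometrically; inhibition derived from absorbance relative to fungicide-free control wells.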

Data set [4] relates to Colletotrichum lindemuthianum. The data set is described as follows: Colletotrichum lindemuthianum in vitro cell test. Type of data set: cell-based. The note with it: 144 h, 6 days incubation, read-out: efficacy (inhibition of fungal growth; no direct activity); for inhibition at 5 ppm: 5 ppm of active ingredient; for inhibition at 20 ppm: 20 ppm of active ingredient. Put shortly:
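Inhibition of spore germination and mycelial growth in liquid culture, read spectrometrically after 6 days incubation. Compounds added from DMSO (final ≤1%) to spores in glucose/peptone/yeast-extract medium; absorbance compared with untreated controls.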

Data set [5] concerns Xanthomonas campestris pv. campestris. The data set is described as follows: Xanthomonas campestris pv. campestris in vitro cell test. The format is cell-based. Particulars: 24 h of incubation, read-out: efficacy (inhibition of bacteria growth; no direct activity); for inhibition at 5 ppm: 5 ppm of active ingredient; for inhibition at 20 ppm: 20 ppm of active ingredient. Put shortly: (§1)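 Bacteria from liquid pre-culture diluted to set OD in LB broth and exposed to compounds dissolved in DMSO (final ≤1%). After 24 h, growth read by absorbance; inhibition derived relative to compound-free control wells.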

The subject of data set [6] is Pseudomonas syringae pv. tomato. The data set is described as follows: Pseudomonas syringae pv. tomato in vitro cell test. Type of data set: cell-based. The note with it: 20 ppm of active ingredient, 24 h of incubation, read-out: efficacy (inhibition of bacteria growth; no direct activity). The gist of the method: as §1
Data set [7] relates to Xanthomonas campestris pv. campestris. Nature of the data set: In vivo preventive test on Xanthomonas campestris pv. campestris (black rot on cabbage). Particulars: Xanthomonas campestris, sprayed 72 hours before inoculation, evaluated 8 or 10 days after inoculation, read-out: efficacy. Put shortly:
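Young cabbage plants sprayed preventively with compound formulated in acetone/DMSO/Tween and diluted in water, then inoculated 72 h later with a bacterial spray. Kept at 27° C, 95% relative humidity; disease scored after 8 or 10 days as % efficacy versus solvent-treated controls (0% = control, 100% = no disease).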

The mark [8] stands for this setting: preparation examples, method not indicated, read-out: Log P.

Usually inhibition stands for the drop in the measured response relative to a control, in per cent. Consider `C=CC1CC1(NC(=O)c1sc(Br)c(Br)c1C)C(=O)OC` (stereo not drawn) [I.003], for which the chromatographic logP in data set [1] (method [a]) came to 3.48. The fold induction at 75 ppm in [2] is greater than 2. The pest or weed control at 500 ppm in [3] is 80 to 89%; with Peronospora parasitica, 90 to 100%; in the data set on Uromyces appendiculatus, 90 to 100%. For the same compound, the pest or weed control at 125 ppm is 80 to 89% in the data set with Peronospora parasitica and 90 to 100% with Uromyces appendiculatus. In addition, the inhibition at 5 ppm (in the data set on Alternaria alternata; in data set [4]; in data set [5]) was no more than 30% each time. In addition, the inhibition at 20 ppm (in the data set with Alternaria alternata; in data set [5]; in data set [6]) was no more than 30% in each case.

In data set [1] (method [a]), `CCOC(=O)C1(NC(=O)c2sc(Br)c(Br)c2C)COC1` [I.014] gave a chromatographic logP of 2.9. Besides, the fold induction at 75 ppm in [2] is greater than 2. The fold induction at 300 ppm in [2] was greater than 2. Also, the pest or weed control at 31 ppm lay in the range of 70 to 79% in [3], 90 to 100% with Peronospora parasitica and 90 to 100% in the data set with Uromyces appendiculatus (31 ppm of active ingredient). The figures for the pest or weed control at 125 ppm (in [3]; in the data set with Peronospora parasitica; with Uromyces appendiculatus) were 80 to 89%, 90 to 100% and 90 to 100%, respectively. The pest or weed control at 500 ppm (in data set [3]; with Peronospora parasitica; with Uromyces appendiculatus) was 90 to 100% throughout. For the same compound, the inhibition at 5 ppm (in the data set with Alternaria alternata; in data set [4]; in [5]) was no more than 30% in each case. The inhibition at 20 ppm (with Alternaria alternata; in data set [4]; in data set [5]; in data set [6]) was no more than 30% in each case.

Regarding `CCOC(=O)[C@@H](NC(=S)c1sc(Br)c(Br)c1C)C(C)C` [I.023, ethyl N-[(4,5-dibromo-3-methyl-2-thienyl)carbonothioyl]valinate], the chromatographic logP in data set [1] (setting [8]) worked out at 5.22. Also, the fold induction at 300 ppm in data set [2] is greater than 2. Besides, the pest or weed control at 31 ppm in [3] was 90 to 100%; in the data set on Peronospora parasitica it was 80 to 89%. Moreover, the pest or weed control at 125 ppm in data set [3] lay within 90 to 100%; in the data set on Peronospora parasitica it was 90 to 100%; in data set [7] (125 ppm of active ingredient), 80 to 89%. Also, the pest or weed control at 500 ppm in [3] lay within 90 to 100%; in the data set on Peronospora parasitica, 90 to 100%; in [7] (500 ppm of active ingredient) it was 70 to 79%. Moreover, the inhibition at 5 ppm (in the data set on Alternaria alternata; in [4]; in data set [5]) was no more than 30% throughout. Also, the inhibition at 20 ppm (in the data set on Alternaria alternata; in data set [4]; in [5]; in data set [6]) was no more than 30% throughout.

As for `Cc1c(C(=S)N[C@H](C(=O)O)C(C)C)sc(Br)c1Br` [I.031, N-[(4,5-dibromo-3-methyl-2-thienyl)carbonothioyl]valine], the chromatographic logP in data set [1] (setting [8]) came to 3.72. Moreover, the fold induction at 75 ppm in data set [2] was greater than 2. Besides, the fold induction at 300 ppm in data set [2] was greater than 2. Also, the pest or weed control at 500 ppm fell in the range of 90 to 100% in data set [3], 90 to 100% in the data set on Peronospora parasitica and 70 to 79% in the data set with Uromyces appendiculatus. For the same compound, the pest or weed control at 125 ppm with Peronospora parasitica was 90 to 100%. In addition, the inhibition at 5 ppm (in the data set with Alternaria alternata; in data set [4]; in data set [5]) was no more than 30% throughout. The inhibition at 20 ppm (in the data set with Alternaria alternata; in [4]; in data set [5]; in [6]) was no more than 30% each time.

Compound `CCOC(=O)C(Cc1c[nH]c2ccccc12)NC(=O)c1sc(Cl)c(Cl)c1C` (stereo not drawn) [I.040] returned a chromatographic logP in data set [1] (method [a]) of 4.08. For the same compound, in data set [2], the fold induction at 75 ppm is greater than 2 and the fold induction at 300 ppm is greater than 2. In data set [3], the pest or weed control at 125 ppm lay within 90 to 100% and the pest or weed control at 500 ppm lay within 90 to 100%. In addition, the pest or weed control at 500 ppm in the data set on Peronospora parasitica lay within 90 to 100%. Besides, in [5], the inhibition at 5 ppm is no more than 30% and the inhibition at 20 ppm is no more than 30%. The inhibition at 20 ppm in data set [6] was no more than 30%.

For `COC(=O)C(CC(F)F)NC(=O)c1sc(Cl)c(Cl)c1C` (stereo not drawn) [I.043], in data set [1] (method [a]), the chromatographic logP was determined as 3.25. The fold induction at 300 ppm in [2] is greater than 2. Further, the pest or weed control at 31 ppm (in data set [3]; in the data set on Peronospora parasitica) was 90 to 100% in each case. The pest or weed control at 125 ppm in data set [3] is 90 to 100%; in the data set with Peronospora parasitica, 90 to 100%; with Uromyces appendiculatus, 80 to 89%. Further, the pest or weed control at 500 ppm (in [3]; in the data set with Peronospora parasitica; with Uromyces appendiculatus) was 90 to 100% each time. In addition, the inhibition at 5 ppm (with Alternaria alternata; in data set [4]; in data set [5]) was no more than 30% in each case. In addition, the inhibition at 20 ppm (with Alternaria alternata; in data set [5]; in [6]) was no more than 30% throughout.

`CCOC(=O)C(CC(N)=O)NC(=O)c1sc(Cl)c(Cl)c1C` (stereo not drawn) [I.045] displayed a chromatographic logP in data set [1] (method [a]) of 2.28. In addition, the fold induction at 300 ppm in [2] was greater than 2. The pest or weed control at 500 ppm in data set [3] lay within 80 to 89%; with Peronospora parasitica, 90 to 100%; with Uromyces appendiculatus, 90 to 100%. Besides, the pest or weed control at 31 ppm in the data set with Peronospora parasitica was in the range of 90 to 100%. In the data set with Peronospora parasitica, the pest or weed control at 125 ppm lay within 90 to 100%. Further, the inhibition at 5 ppm (in the data set with Alternaria alternata; in data set [4]; in data set [5]) was no more than 30% throughout. In addition, the inhibition at 20 ppm (in the data set with Alternaria alternata; in [4]; in data set [5]; in data set [6]) was no more than 30% throughout.
